Data from ChEMBL document CHEMBL1121864, “Diterpenoid sweeteners. Synthesis and sensory evaluation of stevioside analogues nondegradable to steviol” (J Med Chem, 1981).

Test: Acute toxicity in mice after oral administration
Details: mouse, in vivo

## C=C1C[C@@]23CC[C@H]4[C@@](C)(CCC[C@@]4(C)C(=O)O[C@@H]4O[C@H](CO)[C@@H](O)[C@H](O)[C@H]4O)[C@@H]2CC[C@]1(O[C@@H]1O[C@H](CO)[C@@H](O)[C@H](O)[C@H]1O[C@@H]1O[C@H](CO)[C@@H](O)[C@H](O)[C@H]1O)C3 [STEVIOSIDE]
  LD50: > 8200 mg/kg
read-out: LD50
  LD50: > 15000 mg/kg
